The source of these data is US11306337B2, “Polypeptides having hydrolytic activity on 1-kestose in the presence of sucrose but lacking sucrase (invertase) activity, polynucleotides encoding same and methods of producting and using same in industrial sucrose production from 1-kestose” (CTC—Centro de Tecnologia Canavieira S.A., priority 2015, dated 2022).

For assay [1], the target named is T1, Saccharomyces cerevisiae invertase (Saccharomyces cerevisiae, UniProt P00724).
T1 sequence (P00724 20-532): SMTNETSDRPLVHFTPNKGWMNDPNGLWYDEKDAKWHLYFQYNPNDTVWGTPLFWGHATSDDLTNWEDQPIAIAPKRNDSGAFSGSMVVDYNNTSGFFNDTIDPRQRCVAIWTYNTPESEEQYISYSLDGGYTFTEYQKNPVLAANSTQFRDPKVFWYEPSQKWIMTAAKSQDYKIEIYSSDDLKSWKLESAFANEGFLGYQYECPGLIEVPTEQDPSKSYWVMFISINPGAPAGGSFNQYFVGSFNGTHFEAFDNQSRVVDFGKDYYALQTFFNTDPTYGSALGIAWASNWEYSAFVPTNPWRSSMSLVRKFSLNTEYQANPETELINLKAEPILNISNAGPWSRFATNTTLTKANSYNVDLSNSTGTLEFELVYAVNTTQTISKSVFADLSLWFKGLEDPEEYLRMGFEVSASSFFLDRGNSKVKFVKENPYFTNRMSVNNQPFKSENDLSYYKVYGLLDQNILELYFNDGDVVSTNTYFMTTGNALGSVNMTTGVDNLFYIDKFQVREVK
As to conditions: cited from earlier work; for Activity of S. cerevisiae invertase with the oligosaccharide as substrate: Sainz-Polo et al. 2013; for Activity: substrate hydrolysed by S. cerevisiae invertase, Sainz-Polo et al., 2013.

The nature of assay [2]: Sucrose inhibition assay of 1-kestose hydrolysis by partially purified recombinant 1-FEH targets (HPAEC-PAD, fructose released). Type of assay: biochemical. As to conditions: 380 mM sucrose; 10 mM 1-kestose, 1 hour, 30° C., pH6.0. As to the method:
The enzymes A, B, C and D were expressed in Pichia pastoris KM71H strain with a fusion GFP protein at C-terminal in 300 mL of culture media. After 48-hour induction with 0.5% (v/v) […] of methanol, the recombinant proteins were partially purified by precipitation with ammonium sulphate at 70% of saturation, followed by solubilization with sodium phosphate buffer 50 mM pH6.0. The partially purified proteins were concentrated and analyzed by SDS-PAGE and blue-light transluminator for GFP fluorescence. The enzymatic activity assays of the partially purified enzymes were evaluated using 10 mM 1-kestose as substrate, 50 uL of enzyme and sucrose as inhibitor ranging from zero to 380 mM, in a 100 μL-reaction buffered with sodium phosphate 50 mM pH6.0. The reactions were carried for 1 hour at 30° C. and stopped by heating at 95° C. for 5 minutes. The reactions were than diluted to 4 mL with ultrapure water and analyzed high-pressure anion-exchange chromatography with pulsed amperometric detection (HPAEC-PAD, Dionex, Sunnyvale, Calif., USA). Enzyme relative activity was determined by the amount of fructose released.
After identifying that the chosen targets are active against 1-kestose but not sucrose, we performed sucrose inhibition studies in which the amount of enzyme and substrate were fixed and increasing concentrations of sucrose were added to the reaction. […]

For assay [3] the following is noted: cited from earlier work.
The mark [4] stands for this setting: 10 mM sucrose, Verhaest et al., 2007.

As to `OC[C@H]1O[C@@](CO)(OC[C@@]2(OC[C@@]3(O[C@H]4O[C@H](CO)[C@@H](O)[C@H](O)[C@H]4O)O[C@H](CO)[C@@H](O)[C@@H]3O)O[C@H](CO)[C@@H](O)[C@@H]2O)[C@@H](O)[C@@H]1O` [Nystose], in assay [1], the “Activity of S. cerevisiae invertase with the oligosaccharide as substrate” value (“Activity of S. cerevisiae invertase” for short) was “hydrolyzed at a much lower rate” and the Activity was 36 ± 1 µmol/min/mg.

As for Inulin, in assay [1], the “Activity of S. cerevisiae invertase” value is “No significant activity” and the Activity was 2.5 ± 0.1 µmol/min/mg.

In the case of `OC[C@H]1O[C@@](CO)(OC[C@@]2(O[C@H]3O[C@H](CO)[C@@H](O)[C@H](O)[C@H]3O)O[C@H](CO)[C@@H](O)[C@@H]2O)[C@@H](O)[C@@H]1O` [1-Kestose, β-D-fructofuranosyl-(2→1)-β-D-fructofuranosyl α-D-glucopyranoside], in assay [1], the Activity is 102 ± 11 µmol/min/mg.

In the case of `OC[C@H]1O[C@H](OC[C@H]2O[C@H](O[C@]3(CO)O[C@H](CO)[C@@H](O)[C@@H]3O)[C@H](O)[C@@H](O)[C@@H]2O)[C@H](O)[C@@H](O)[C@H]1O` [Raffinose], the Activity in assay [1] was 187 ± 8 µmol/min/mg.

Regarding `OC[C@H]1O[C@@](CO)(O[C@H]2O[C@H](CO)[C@@H](O)[C@H](O)[C@H]2O)[C@@H](O)[C@@H]1O` [Sucrose, sucrose], in assay [1], the “Activity of S. cerevisiae invertase” value is recorded as “highest efficiency” and the Activity was 520 ± 20 µmol/min/mg.

B1: enzyme D: Cichorium intybus 1-FEH IIa with W82 homologue replaced by leucine; also reported by Verhaest et al. 2007 (protein)
chain: QQIEQPYRTGYHFQPPSNWMNDPNGPMLYQGVYHFFYQYNPYAATFGDVIIWGHAVSYDLVNWIHLDPAIYPTQEADSKSCLSGSATILPGNIPAMLYTGSDSKSRQVQDLAWPKNLSDPFLREWVKHPKNPLITPPEGVKDDCFRDPSTAWLGPDGVWRIVVGGDRDNNGMAFLYQSTDFVNWKRYDQPLSSADATGTWECPDFYPVPLNSTNGLDTSVYGGSVRHVMKAGFEGHDWYTIGTYSPDRENFLPQNGLSLTGSTLDLRYDYGQFYASKSFFDDAKNRRVLWAWVPETDSQADDIEKGWAGLQSFPRALWIDRNGKQLIQWPVEEIEELRQNQVNLQNKNLKPGSVLEIHGIAASQADVTISFKLEGLKEAEVLDTTLVDPQALCNERGASSRGALGPFGLLAMASKDLKEQSAIFFRVFQNQLGRYSVLMCSDLSRSTVRSNIDTTSYGAFVDIDPRSEEISLRNLIDHSIIESFGAGGKTCITSRIYPKFVNNEEAHLFVFNNGTQNVKISEMSAWSMKNAKFVVDQSVKSAA
modifications: Fructan 1-exohydrolase precursor (W120L)
B1: the inhibition by sucrose in assay [2] amounted to 52%. For the same molecule, in assay [3] (setting [4]), the “inhibition by sucrose (text)” value was 0% and the “inhibition by sucrose (words)” value is “no longer inhibited”. Besides, the “% inhibition by sucrose” value in assay [3] (10 mM sucrose) is recorded as 0% with 10 mM. Moreover, the Sucrose inhibition result in assay [3] (Weak / Strong, Table 3) was “Weak”. Further, the “inhibition by sucrose as described in the literature” value in assay [3] (no sucrose concentration stated) is listed as “strongly inhibited”.
